Values after ≈ are worked out from the molar mass of the structure shown. Where two headings read alike, the source gives them in different places.
Key:
[1] = Solubility of palbociclib (free base) in various aqueous buffers, with total degradation by HPLC; type: physicochemical; settings: for solubility at 28 h: aqueous buffer solution, 25 °C, thermodynamic from solid
Protocol: The solubility of palbociclib (free base) was assessed in various aqueous buffer solutions and mixtures thereof. The buffers were prepared at concentrations ranging from 0.01 M to 0.2 M and at pH values ranging from 2.0 to 8.4. Samples were prepared by weighing and transferring approximately 200 mg of palbociclib to 3-4 mL of the buffer. The solutions were vortexed and placed in a temperature cycle chamber for 8 hours at 25° C., followed by 12 hours at 40° C., then 8 hours at 25° C. The resulting solutions were then analyzed by HPLC to determine the solubility (mg/mL) of palbociclib in the buffer. […] NT=Not tested.

[2] = Effect of pH on the oral aqueous solution (degradation, precipitation); type: physicochemical; settings: pH values above about 4.3
Source text: In some embodiments, the oral aqueous solution has a pH of from about 3.0 to about 4.5. In some embodiments, the oral aqueous solution has a pH of from about 3.5 to about 4.3. In frequent embodiments, the oral aqueous solution has a pH of from about 3.6 to about 4.0. In some such embodiments, the oral aqueous solution has a pH of about 3.8.

[3] = Sample P: 0.032M Malic Acid, pH NT
[4] = Sample Q: 0.02M Malic Acid, pH NT
[5] = Sample R: 0.01M Malic Acid, pH NT
[6] = aqueous buffer systems of lactic acid and malic acid

Total Degradation ([1]; Sample A: 0.2M Citric Acid, pH 2.02, new HPLC peaks greater than 0.05%): 0.52% | Total Degradation ([1]; Sample B: 0.2M Malic Acid, pH 2.00): 0.20% | Total Degradation ([1]; Sample C: 0.2M DL Lactic Acid, pH 2.07): 0% | Total Degradation ([1]; Sample D: 0.2M Succinic acid, pH 2.42): 0.66% | Total Degradation ([1]; Sample E: 0.2M Sodium succinate, pH 8.38): 0% | Total Degradation ([1]; Sample F: 0.2M Sodium dihydrogen phosphate dihydrate, pH 2.01): 1.27% | Total Degradation ([1]; Sample G: 9.5 mL D + 0.5 mL E, pH 3.15): 0.29% | Total Degradation ([1]; Sample H: 9 mL D + 1 mL E, pH 3.45): 3.03% | Total Degradation ([1]; Sample I: 8 mL D + 2 mL E, pH 3.93): 3.43% | Total Degradation ([1]; Sample J: 5 mL D + 5 mL E, pH 4.62): 1.31% | Total Degradation ([1]; Sample K: 5 mL D + 10 mL E, pH 4.98): 1.08% | Total Degradation ([1]; Sample L: 5 mL D + 15 mL E, pH 5.25): 1.46% | Total Degradation ([1]; Sample M: 0.1M DL Lactic Acid, pH 2.31): 0.00% | Total Degradation ([1]; Sample N: 0.05M DL Lactic Acid, pH 2.46): 0.00% | Total Degradation ([1]; Sample O: 0.01M DL Lactic Acid, pH 2.83): 0.19% | Solubility [1, 3]: 530 µg/mL (≈ 1.18 mM) | Total Degradation [1, 3]: 1.66% | Solubility [1, 4]: 600 µg/mL (≈ 1.34 mM) | Total Degradation [1, 4]: 1.62% | Solubility [1, 5]: 600 µg/mL (≈ 1.34 mM) | Total Degradation [1, 5]: 1.63% | solubility at 28 h ([1]; pH 2, aqueous buffer, Sample B: 0.2M Malic Acid, pH 2.00, read-out: Solubility): 15700 µg/mL (≈ 35.1 mM) | solubility at 28 h ([1]; pH 2.01, aqueous buffer, Sample F: 0.2M Sodium dihydrogen phosphate dihydrate, pH 2.01, read-out: Solubility): 650 µg/mL (≈ 1.45 mM) | solubility at 28 h ([1]; pH 2.02, aqueous buffer, Sample A: 0.2M Citric Acid, pH 2.02, temperature cycle 25/40/25° C., read-out: Solubility): 4000 µg/mL (≈ 8.94 mM) | solubility at 28 h ([1]; pH 2.07, aqueous buffer, 0.2M DL lactic acid buffer, read-out: Amount dissolved with solution still clear (saturated solubility not yet reached)): > 45700 µg/mL | solubility at 28 h ([1]; pH 2.07, aqueous buffer, Sample C: 0.2M DL Lactic Acid, pH 2.07, read-out: Solubility): 45700 µg/mL (≈ 102 mM) | solubility at 28 h ([1]; pH 2.31, aqueous buffer, Sample M: 0.1M DL Lactic Acid, pH 2.31, read-out: Solubility): 36300 µg/mL (≈ 81.1 mM) | solubility at 28 h ([1]; pH 2.42, aqueous buffer, Sample D: 0.2M Succinic acid, pH 2.42, read-out: Solubility): 1100 µg/mL (≈ 2.46 mM) | solubility at 28 h ([1]; pH 2.46, aqueous buffer, Sample N: 0.05M DL Lactic Acid, pH 2.46, read-out: Solubility): 16200 µg/mL (≈ 36.2 mM) | solubility at 28 h ([1]; pH 2.83, aqueous buffer, Sample O: 0.01M DL Lactic Acid, pH 2.83, read-out: Solubility): 3800 µg/mL (≈ 8.49 mM) | solubility at 28 h ([1]; pH 3.15, aqueous buffer, Sample G: 9.5 mL D + 0.5 mL E (succinic acid/sodium succinate), pH 3.15, read-out: Solubility): 1700 µg/mL | solubility at 28 h ([1]; pH 3.45, aqueous buffer, Sample H: 9 mL D + 1 mL E, pH 3.45, read-out: Solubility): 340 µg/mL | solubility at 28 h ([1]; pH 3.93, aqueous buffer, Sample I: 8 mL D + 2 mL E, pH 3.93, read-out: Solubility): 67 µg/mL | solubility at 28 h ([1]; pH 4.62, aqueous buffer, Sample J: 5 mL D + 5 mL E, pH 4.62, read-out: Solubility): 68 µg/mL | solubility at 28 h ([1]; pH 4.98, aqueous buffer, Sample K: 5 mL D + 10 mL E, pH 4.98, read-out: Solubility): 55 µg/mL | solubility at 28 h ([1]; pH 5.25, aqueous buffer, Sample L: 5 mL D + 15 mL E, pH 5.25, read-out: Solubility): 91 µg/mL | solubility at 28 h ([1]; pH 8.38, aqueous buffer, Sample E: 0.2M Sodium succinate, pH 8.38, read-out: Solubility): 4 µg/mL (≈ 0.00894 mM) | Degradation (in words) [1, 6]: minimal degradation | Solubility (in words) [1, 6]: significantly enhanced solubility | Precipitation of the API [2]: Some precipitation
Structure (SMILES): CC(=O)c1c(C)c2cnc(Nc3ccc(N4CCNCC4)cn3)nc2n(C2CCCC2)c1=O [palbociclib, 6-acetyl-8-cyclopentyl-5-methyl-2-(5-piperazin-1-yl-pyridin-2-ylamino)-8H-pyrido[2,3-d]pyrimidin-7-one]

From patent publication US11911383B2, “Oral solution formulation” (Pfizer Inc., priority 2018, dated 2024)
